For 57 compounds, ΔTm results are on record in patent US20240317727A1 (Duke University, priority 2018, published 2024).

The first experiment concerns the target T1, recombinant HSF1 DNA-binding domain (DBD) (Homo sapiens, UniProt Q00613).
T1 sequence (Q00613 15-120): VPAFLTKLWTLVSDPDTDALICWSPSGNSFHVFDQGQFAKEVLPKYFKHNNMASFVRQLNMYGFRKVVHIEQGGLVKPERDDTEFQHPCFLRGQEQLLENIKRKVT
Put plainly: Differential Scanning Fluorimetry (DSF), HSF1 DBD melting temperature. The note with it: Table 1; 5 μM HSF1 DBD, 25PM Compound; positive = stabilizes, negative = destabilizes HSF1. On the technique in general: Differential scanning fluorimetry follows unfolding on heating by fluorescence.
Regarding `O=C(Nc1ccc(Cl)c([N+](=O)[O-])c1)Nc1ccc(F)c(C2(C(F)(F)F)N=N2)c1` [Compound 0094, 1-(4-chloro-3-nitro-phenyl)-3-[4-fluoro-3-[3-(trifluoromethyl)diazirin-3-yl]phenyl]urea], the ΔTm at 25 µM turned out to be 2.92 °C.
For `Cc1cccc(NC(=O)Nc2cccc(Cl)c2)c1` [Compound 0063, 1-(3-chlorophenyl)-3-(m-tolyl)urea], the ΔTm at 25 µM was 2.5 °C.
As to `COc1cc(C(=O)Oc2c(Cl)cc(Cl)cc2/C=N\c2cccc(C(F)(F)F)c2)cc(OC)c1OC` [Compound 0070], the ΔTm at 25 µM is -7.24 °C.
The same measure, in the same setting: under `N#Cc1cc(NC(=O)Nc2ccc(F)cc2)ccc1Cl` [Compound 0083, 1-(4-chloro-3-cyano-phenyl)-3-(4-fluorophenyl) urea] stands 2 °C.
For `Cn1ncc(S(=O)(=O)Cc2ccccc2)c(Cl)c1=O` [Compound 0014], the ΔTm at 25 µM was -4.56 °C.
Take `Cc1cccc(NC(=O)Nc2ccc(Cl)c([N+](=O)[O-])c2)c1` [Compound 0026, 1-(4-chloro-3-nitrophenyl)-3-(m-tolyl)urea]: the ΔTm at 25 µM was found to be 5.75 °C.
The same measure, in the same setting: as for `CC(=O)NC1C(O)OC(OS(=O)(=O)O)C(O)C1OC1CC(C(=O)O)C(O)C(O)C1O` (stereo not drawn) [Compound 0041], the figure is -3.11 °C.
On the same count and under the same terms, as for `CCOC(=O)c1c(Cl)c2ccccc2oc1=O` [Compound 0021], the figure is -9.19 °C; as for `O=C(N/N=C/c1cccnc1)c1ccc(=O)[nH]n1` [Compound 0037], -9.74 °C.
For `O=C(COc1ccc(Cl)cc1Cl)N/N=C/c1c[nH]c2ccccc12` [Compound 0098], the ΔTm at 25 µM is 4.93 °C.
The same measure, in the same setting: under `CC(=O)Nc1cc(NC(=O)Nc2ccc(F)cc2)ccc1Cl` [Compound 0095, N-[2-chloro-5-[(4-fluorophenyl)carbamoylamino]phenyl]acetamide] stands 0.67 °C.
Same read-out and setting: under `N=C(Nc1ccc(F)cc1)Nc1ccc(Cl)c(C(F)(F)F)c1` [Compound 0032, 1-[4-chloro-3-(trifluoromethyl)phenyl]-3-(4-fluorophenyl)guanidine] stands 0.75 °C; under `CCOC(=O)CCc1ccc(Oc2c([N+](=O)[O-])cc(C(F)(F)F)cc2[N+](=O)[O-])cc1` [Compound 0072], 3.39 °C; under `CSc1nnc(SC2=CC(=O)CC(c3ccccc3)C2)s1` (stereo not drawn) [Compound 0031], -6.23 °C.
Turning to `O=C(Nc1cccc(Cl)c1)O/N=C/c1ccc(F)cc1` [Compound 0051], the ΔTm was −6.91.
As to `Cc1ccc(CNC(=O)CSc2nnc(-c3cccc(N)c3)n2-c2ccccc2)cc1` [Compound 0004], the ΔTm at 25 µM was -9.46 °C.
The same measure, in the same setting: under `CCC(C(=O)C(C)C(O)C(C)CCc1ccc(C)c(O)c1C(=O)O)C1OC(CC)(C2CCC(O)(CC)C(C)O2)CC1C` (stereo not drawn) [Compound 0056] stands -5.96 °C; under `O=C(Nc1ccc(Cl)cc1)Nc1ccc(Cl)cc1` [Compound 0018, 1,3-bis(4-chlorophenyl)urea], 2.44 °C; under `c1ccc(-c2ccc(C(c3ccccc3)n3ccnc3)cc2)cc1` (stereo not drawn) [Compound 0081], -3.6 °C.
With `N=C(N)NC(=O)c1nc(Cl)c(N)nc1N` [Compound 0053], the ΔTm at 25 µM was -10.1 °C.
The same measure, in the same setting: under `O=C(Nc1cc(Cl)ccc1O)c1ccccc1CSc1ccc(Cl)cc1` [Compound 0104] stands 3.27 °C; under `CCOC(=O)N1CCN(C2=Nc3cc(Cl)ccc3C(C)C2)CC1` (stereo not drawn) [Compound 0043], -9.07 °C.
The same measure, in the same setting: as for `Cc1cc(/C=N/Nc2nc3ccccc3s2)cc(C)c1O` [Compound 0114], the figure is 0.49 °C; as for `COc1ccc(NC(=O)Nc2ccc(C)cc2)cc1` [Compound 0011, 1-(4-methoxyphenyl)-3-(p-tolyl)urea], 2.61 °C.
The same measure, in the same setting: as for `O=C(Nc1cccc(C(F)(F)F)c1)Nc1ccc2nonc2c1` [Compound 0035], the figure is 6.44 °C; as for `O=C(Nc1cccc([N+](=O)[O-])c1)Nc1ccc(F)cc1C(=O)O` [Compound 0106, 5-fluoro-2-(3-(3-nitrophenyl)ureido)benzoic acid], 3.28 °C.
As to `O=[N+]([O-])c1cc(C(F)(F)F)cc([N+](=O)[O-])c1Oc1ccc(F)cc1F` [Compound 0012], the ΔTm at 25 µM was -4.73 °C.
In the case of `COc1cc2cc(N(C)CCCNC(=O)C3CCCO3)cc(N)c2cc1OC` (stereo not drawn) [Compound 0088], the ΔTm at 25 µM is -3.02 °C.
On the same count and under the same terms, as for `O=C(Nc1ccc(F)cc1)Nc1ccc(Cl)cc1` [Compound 0096, 1-(4-chlorophenyl)-3-(4-fluorophenyl)urea], the figure is 2.61 °C; as for `COc1ccc(NC(=O)Nc2ccc(Cl)cc2)cc1` [Compound 0036, 1-(4-chlorophenyl)-3-(4-methoxyphenyl)urea], 2.61 °C.
Same read-out and setting: under `COc1ccc(CSc2ccc([N+](=O)[O-])c3nonc23)cc1` [Compound 0089] stands -5.73 °C.
Still for that read-out and setting: as for `CC(C)(C)CC(C)(C)c1ccc(O)c(Cc2ccc(Cl)cc2Cl)c1` [Compound 0073], the figure is 2.6 °C; as for `O=[N+]([O-])c1cc(C(F)(F)F)cc([N+](=O)[O-])c1Oc1ccc(I)cc1` [Compound 0077], 2.5 °C; as for `O=C(Nc1ccccc1)Nc1ccc(Cl)c(Cl)c1` [Compound 0022, 1-(3,4-dichlorophenyl)-3-phenylurea], 2.78 °C.
Consider `CC(C)(C)c1ccc(-c2nnc(SCC(=O)NCc3ccccc3)n2-c2ccccc2)cc1` [Compound 0084], for which the ΔTm at 25 µM is -8.96 °C.
Still for that read-out and setting: as for `O=C(Nc1ccc(F)cc1)Nc1cccc([N+](=O)[O-])c1` [Compound 0076, 1-(4-fluorophenyl)-3-(3-nitrophenyl)urea], the figure is -7.23 °C; as for `CCOC(=O)c1sc(Sc2ccc([N+](=O)[O-])cc2[N+](=O)[O-])nc1C` [Compound 0108], -4.19 °C; as for `Cc1ccc(CNC(=O)CSc2nnc(-c3ccccc3)n2-c2ccc(C)c(C)c2)cc1` [Compound 0115], -9.91 °C.

The same experiment, now with this note: Table 3; 5 μM HSF1 DBD, 25PM Compound; positive = stabilizes, negative = destabilizes HSF1.
Regarding `O=C(Nc1ccc(F)cc1)Nc1ccc(Cl)c([N+](=O)[O-])c1` [Compound 017, 1-(4-chloro-3-nitrophenyl)-3-(4-fluorophenyl)urea], the ΔTm at 25 µM was 3 °C.
On the same count and under the same terms, as for `O=C(Nc1ccc(Cl)c([N+](=O)[O-])c1)Nc1ccc(F)c(C2(C(F)(F)F)N=N2)c1` [Compound 094, 1-(4-chloro-3-nitro-phenyl)-3-[4-fluoro-3-[3-(trifluoromethyl)diazirin-3-yl]phenyl]urea], the figure is 2.92 °C; as for `COc1ccc(NC(=O)Nc2ccc(C)cc2)cc1` [Compound 011, 1-(4-methoxyphenyl)-3-(p-tolyl)urea], 2.61 °C; as for `O=C(Nc1ccc(F)cc1)Nc1cccc(C(F)(F)F)c1` [Compound 003, 1-(4-fluorophenyl)-3-(3-(trifluoromethyl)phenyl)urea], 1.78 °C.
Same read-out and setting: under `O=C(Nc1ccc(F)cc1)Nc1cccc([N+](=O)[O-])c1` [Compound 076, 1-(4-fluorophenyl)-3-(3-nitrophenyl)urea] stands 2.61 °C; under `N=C(Nc1ccc(F)cc1)Nc1ccc(Cl)c(C(F)(F)F)c1` [Compound 032, 1-[4-chloro-3-(trifluoromethyl)phenyl]-3-(4-fluorophenyl)guanidine], 0.75 °C; under `O=C(Nc1ccc(Cl)cc1)Nc1ccc(Cl)cc1` [Compound 018, 1,3-bis(4-chlorophenyl)urea], 2.44 °C.
Consider `O=c1c(Nc2ccc(F)c(F)c2)c(Nc2ccc(Cl)c(S(=O)(=O)C(F)(F)F)c2)c1=O` [Compound 016, 3-[4-chloro-3-(trifluoromethylsulfonyl)anilino]-4-(3,4-difluoroanilino)cyclobut-3-ene-1,2-dione], for which the ΔTm at 25 µM stood at 2.75 °C.
Same read-out and setting: under `Cc1ccc(NC(=O)Nc2ccc(Cl)c([N+](=O)[O-])c2)cc1` [Compound 046, 1-(4-chloro-3-nitrophenyl)-3-(p-tolyl)urea] stands 4.3 °C; under `O=C(Nc1ccc(Cl)c(Cl)c1)Nc1ccc(Cl)c([N+](=O)[O-])c1` [Compound 044, 1-(4-chloro-3-nitrophenyl)-3-(3,4-dichlorophenyl)urea], 2.33 °C; under `O=C(Nc1ccccc1)Nc1cccc(Cl)c1` [Compound 091, 1-(3-chlorophenyl)-3-phenylurea], 2.5 °C.
Same read-out and setting: under `O=C(Nc1ccc(Cl)cc1)Nc1cccc(Cl)c1` [Compound 066, 1-(3-chlorophenyl)-3-(4-chlorophenyl)urea] stands 3 °C; under `Cc1ccc(NC(=O)Nc2cccc(Cl)c2)cc1` [Compound 068, 1-(3-chlorophenyl)-3-(p-tolyl)urea], 2.75 °C.
Still for that read-out and setting: as for `O=C(Nc1ccc(F)cc1)Nc1ccc(Br)c(C(F)(F)F)c1` [Compound 005, 1-(4-bromo-3-(trifluoromethyl)phenyl)-3-(4-fluorophenyl)urea], the figure is 5.1 °C; as for `O=C(Nc1ccc(F)cc1)Nc1ccc2nonc2c1` [Compound 027, 1-(2,1,3-benzoxadiazol-5-yl)-3-(4-fluorophenyl)urea], 2.8 °C.
With `O=c1c(Nc2ccc(F)c(F)c2)c(Nc2ccc(Cl)c(C(F)(F)F)c2)c1=O` [Compound 092, 3-[4-chloro-3-(trifluoromethyl)anilino]-4-(3,4-difluoroanilino)cyclobut-3-ene-1,2-dione], the ΔTm at 25 µM was determined as 2.33 °C.
For `O=c1c(Nc2ccc(F)cc2)c(Nc2ccc(Cl)c([N+](=O)[O-])c2)c1=O` [Compound 002, 3-(4-chloro-3-nitro-anilino)-4-(4-fluoroanilino)cyclobut-3-ene-1,2-dione], the ΔTm at 25 µM worked out at 1.9 °C.
The same measure, in the same setting: as for `O=C(Nc1cccc(F)c1)Nc1ccc(Cl)c([N+](=O)[O-])c1` [Compound 020, 1-(4-chloro-3-nitrophenyl)-3-(3-fluorophenyl)urea], the figure is 5.2 °C.
With `O=C(Nc1cccc(Cl)c1)Nc1ccc(Cl)c([N+](=O)[O-])c1` [Compound 061, 1-(4-chloro-3-nitrophenyl)-3-(3-chlorophenyl)urea], the ΔTm at 25 µM was found to be 2.94 °C.
